Assay [1] addresses T1, human GHS receptor (Homo sapiens, UniProt Q92847). Nature of the assay: h bind IC50 (binding assay, Table 1). To be noted: human receptor; Table 1.
Assay [2] concerns the target T1, human GHS receptor. Put plainly: Ghrelin IP1 agonist assay (IP1 HTRF). It is filed as cell-based. Details: expressed in transfected cells; host or cells: HEK293s. To be noted: for Emax: 2 h, agonist effect as % maximal effect of GHRP-6 (5 μM), read-out: h IP1 ag %; for EC50: HEK293s cells stably expressing human GHS receptor, 2 hours at 37° C., read-out: h IP1 ag EC50. In a few lines: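 Cells: HEK293s stably expressing human GHS receptor, in stimulation buffer containing 0.02% fatty acid free BSA.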

T1 sequence (Q92847 whole entry): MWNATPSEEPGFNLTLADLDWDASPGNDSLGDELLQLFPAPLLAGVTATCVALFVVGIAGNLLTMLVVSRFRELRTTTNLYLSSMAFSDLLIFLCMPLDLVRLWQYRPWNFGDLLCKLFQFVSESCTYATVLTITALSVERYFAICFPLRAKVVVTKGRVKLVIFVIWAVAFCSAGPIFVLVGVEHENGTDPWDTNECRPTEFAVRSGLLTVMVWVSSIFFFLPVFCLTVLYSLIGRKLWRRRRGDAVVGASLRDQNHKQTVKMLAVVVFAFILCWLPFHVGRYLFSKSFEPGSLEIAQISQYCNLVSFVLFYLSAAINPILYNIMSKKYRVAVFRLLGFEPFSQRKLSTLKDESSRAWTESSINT

Regarding `CS(=O)(=O)c1ccc2nc(NC(=O)NC(=O)c3cc(-n4cncn4)ccc3Cl)sc2c1` [Example 67, 2-Chloro-N-(6-(methylsulfonyl)benzothiazol-2-ylcarbamoyl)-5-(1H-1,2,4-triazol-1-yl)benzamide], the concentration for half-maximal inhibition (IC50) at human GHS receptor [1] came to 536 nM. Besides, at human GHS receptor [2], the Emax came to 0% and the EC50 is > 20000 nM.

As to `CC(C)(C)OC(=O)N1CCN(CCCS(=O)(=O)c2ccc3nc(NC(=O)NC(=O)c4ccccc4Cl)sc3c2)CC1` [Example 205, tert-Butyl 4-[3-[2-[(2-chlorobenzoyl)carbamoylamino]benzothiazol-6-yl]sulfonylpropyl]piperazine-1-carboxylate], the IC50 at human GHS receptor [1] amounted to 5.3 nM. Moreover, on human GHS receptor [2], the Emax was found to be 39.5% and the EC50 amounted to 2 nM.

As for `O=C(NC(=O)c1ccccc1Cl)Nc1nc2ccc(S(=O)(=O)C3CCNC3)cc2s1` (centres unmarked) [Example 44, 2-Chloro-N-[(6-pyrrolidin-3-ylsulfonylbenzothiazol-2-yl)carbamoyl]benzamide], the IC50 at human GHS receptor [1] amounted to 18.2 nM. Moreover, at human GHS receptor [2], the Emax is 49% and the EC50 was found to be 5.73 nM.

The compound `O=C(NC(=O)c1ccccc1Cl)Nc1nc2ccc(S(=O)(=O)CCCNCCO)cc2s1` [Example 159, 2-Chloro-N-[[6-[3-(2-hydroxyethylamino)propylsulfonyl]benzothiazol-2-yl]carbamoyl]benzamide] came in with an IC50 on human GHS receptor [1] of 8.5 nM. On human GHS receptor [2], the Emax stood at 51.6% and the EC50 was 17.6 nM.

The compound `CN(C)C1CCN(c2ccc(Cl)c(C(=O)NC(=O)Nc3nc4ccc(S(C)(=O)=O)cc4s3)c2)CC1` [Example 236, 2-chloro-5-(4-(dimethylamino)piperidin-1-yl)-N-(6-(methylsulfonyl)benzo[d]thiazo1-2-ylcarbamoyl) benzamide] came in with an IC50 at human GHS receptor [1] of 4090 nM. On human GHS receptor [2], the Emax was 3.72% and the EC50 was ≥ 20000 nM.

`COCCNCCS(=O)(=O)c1ccc2nc(NC(=O)NC(=O)c3cc(-n4cccc4)ccc3Cl)sc2c1` [Example 80, 2-Chloro-N-[[6-[2-(2-methoxyethylamino)ethylsulfonyl]benzothiazol-2-yl]carbamoyl]-5-pyrrol-1-yl-benzamide] returned an IC50 at human GHS receptor [1] of 2.2 nM. At human GHS receptor [2], the Emax is 9.77% and the EC50 is ≥ 25000 nM.

Turning to `CN1CCC(Oc2ccc(Cl)c(C(=O)NC(=O)Nc3nc4ccc(S(C)(=O)=O)cc4s3)c2)CC1` [Example 244, 2-chloro-5-(1-methylpiperidin-4-yloxy)-N-(6-(methylsulfonyl)benzo[d]thiazol-2-ylcarbamoyl) benzamide], the IC50 on human GHS receptor [1] stood at 2060 nM. Also, at human GHS receptor [2], the Emax was determined as 22.6% and the EC50 stood at 19700 nM.

Turning to `O=C(NC(=O)c1ccccc1Cl)Nc1nc2ccc(S(=O)(=O)CCN3CC[C@H](F)C3)cc2s1` [Example 16, 2-Chloro-N-[[6-[2-[(3S)-3-fluoropyrrolidin-1-yl]ethylsulfonyl]benzothiazol-2-yl]carbamoyl]benzamide], at human GHS receptor [1], the IC50 was determined as 100 nM. Further, on human GHS receptor [2], the Emax turned out to be 34.1% and the EC50 amounted to 64.4 nM.

In turn, `COc1cc(Cl)c(C(=O)NC(=O)Nc2nc3ccc(S(=O)(=O)C4CCN(C)CC4)cc3s2)cc1-n1nccc1C` [Example 265, 2-chloro-4-methoxy-5-(5-methyl-1H-pyrazol-1-yl)-N-(6-(1-methylpiperidin-4-ylsulfonyl)benzo [d]thiazol-2-ylcarbamoyl) benzamide] came in with an IC50 on human GHS receptor [1] of 29.6 nM. Besides, the Emax at human GHS receptor [2] was 0%.

At human GHS receptor [1], `COc1ccc(C(=O)NC(=O)Nc2nc3ccc(S(C)(=O)=O)cc3s2)c(-c2ccc(F)cc2)c1` [Example 123, 2-(4-Fluorophenyl)-4-methoxy-N-[(6-methylsulfonylbenzothiazol-2-yl)carbamoyl]benzamide] had an IC50 of 120 nM. Besides, on human GHS receptor [2], the Emax was found to be 31.2% and the EC50 was 54.5 nM.

On to `CN1CCN(CCCS(=O)(=O)c2ccc3nc(NC(=O)NC(=O)c4cc(-n5cccc5)ccc4Cl)sc3c2)CC1` [Example 85, 2-Chloro-N-(6-(3-(4-methylpiperazin-1-yl)propylsulfonyl)benzothiazol-2-ylcarbamoyl)-5-(1H-pyrrol-1-yl)benzamide], for which, at human GHS receptor [1], the IC50 came to 0.2 nM. Moreover, on human GHS receptor [2], the Emax worked out at 0.18% and the EC50 was ≥ 25000 nM.

As for `CS(=O)(=O)c1ccc2nc(NC(=O)NC(=O)c3cc(-c4ccccn4)ccc3Cl)sc2c1` [Example 45, 2-Chloro-5-(pyridin-2-yl)-N-(6-(methylsulfonyl)benzothiazol-2-ylcarbamoyl)benzamide], the IC50 at human GHS receptor [1] was determined as 21.4 nM. For the same compound, at human GHS receptor [2], the Emax was 0.946% and the EC50 is ≥ 25000 nM.

At human GHS receptor [1], `CC(C)(C)OC(=O)N1CCC(Oc2ccc(Cl)c(C(=O)NC(=O)Nc3nc4ccc(S(C)(=O)=O)cc4s3)c2)C1` (centres unmarked) [Example 248, tert-butyl 3-(4-chloro-3-(6-(methylsulfonyl)benzo[d]thiazol-2-ylcarbamoyl-carbamoyl)phenoxy) pyrrolidine-1-carboxylate] came in with an IC50 of 59 nM. Moreover, at human GHS receptor [2], the Emax amounted to 3.07% and the EC50 was 347 nM.

Take `O=C(NC(=O)c1ccccc1Cl)Nc1nc2ccc(S(=O)(=O)C3CNC3)cc2s1` [Example 183, N-[[6-(Azetidin-3-ylsulfonyl)benzothiazol-2-yl]carbamoyl]-2-chloro-benzamide]: at human GHS receptor [1], the IC50 came out at 6.7 nM. On human GHS receptor [2], the Emax was 42.1% and the EC50 came to 13.8 nM.

Take `CCOc1cc(C(=O)NC(=O)Nc2nc3ccc(S(=O)(=O)C4CCN(C)CC4)cc3s2)c(Cl)cc1OC` [Example 256, 2-chloro-5-ethoxy-4-methoxy-N-(6-(1-methylpiperidin-4-ylsulfonyl)benzo [d]thiazol-2-ylcarbamoyl) benzamide]: the IC50 on human GHS receptor [1] came out at 58.9 nM. For the same compound, on human GHS receptor [2], the Emax came to 0% and the EC50 was ≥ 20000 nM.

With `C#Cc1ccc(Cl)c(C(=O)NC(=O)Nc2nc3ccc(S(=O)(=O)CCCN4CCN(C)CC4)cc3s2)c1` [Example 220, 2-Chloro-5-ethynyl-N-[[6-[3-(4-methylpiperazin-1-yl)propylsulfonyl]benzothiazol-2-yl]carbamoyl]benzamide], the IC50 at human GHS receptor [1] amounted to 2.8 nM. Moreover, at human GHS receptor [2], the Emax came out at 21.4% and the EC50 was 4.01 nM.

In turn, `CN1CCC(S(=O)(=O)c2ccc3nc(NC(=O)NC(=O)c4cc(-n5cccn5)ccc4Cl)sc3c2)CC1` [Example 100, 2-Chloro-N-(6-(1-methylpiperidin-4-ylsulfonyl)benzothiazol-2-ylcarbamoyl)-5-(1H-pyrazol-1-yl)benzamide] registered an IC50 on human GHS receptor [1] of 27.3 nM. In addition, at human GHS receptor [2], the Emax was determined as 0% and the EC50 is ≥ 20000 nM.

Take `CS(=O)(=O)Oc1ccc(Cl)c(C(=O)NC(=O)Nc2nc3ccc(S(C)(=O)=O)cc3s2)c1` [Example 58, 4-Chloro-3-(6-(methylsulfonyl)benzothiazol-2-ylcarbamoylcarbamoyl)phenyl methanesulfonate]: on human GHS receptor [1], the IC50 amounted to 1310 nM. Moreover, at human GHS receptor [2], the Emax was 8.82% and the EC50 is 3010 nM.

As to `CN(C)CCOc1ccc(Cl)c(C(=O)NC(=O)Nc2nc3ccc(S(C)(=O)=O)cc3s2)c1` [Example 63, 2-Chloro-5-(2-(dimethylamino)ethoxy)-N-(6-(methylsulfonyl)benzothiazol-2-ylcarbamoyl)benzamide], the IC50 at human GHS receptor [1] stood at 2770 nM. For the same compound, at human GHS receptor [2], the Emax stood at 31.8% and the EC50 was found to be 61.4 nM.

`CS(=O)(=O)c1ccc2nc(NC(=O)NC(=O)c3ccccc3F)sc2c1` [Example 108, 2-Fluoro-N-[(6-methylsulfonylbenzothiazol-2-yl)carbamoyl]benzamide] returned an IC50 at human GHS receptor [1] of 1640 nM. In addition, on human GHS receptor [2], the Emax was found to be 8.69% and the EC50 stood at 24300 nM.

At human GHS receptor [1], `O=C(NC(=O)c1ccccc1Cl)Nc1nc2ccc(S(=O)(=O)CCc3ccccn3)cc2s1` [Example 190, 2-Chloro-N-[[6-(2-pyridin-2-ylethylsulfonyl)benzothiazol-2-yl]carbamoyl]benzamide] registered an IC50 of 51.9 nM. Besides, at human GHS receptor [2], the Emax came out at 21.3% and the EC50 turned out to be 82.2 nM.

`O=C(NC(=O)c1ccccc1Cl)Nc1nc2ccc(S(=O)(=O)CCN3C[C@@H]4C[C@H]3CO4)cc2s1` [Example 37, 2-Chloro-N-[[6-[2-[(1S,4S)-3-oxa-6-azabicyclo[2.2.1]hept-6-yl]ethylsulfonyl]benzothiazol-2-yl]carbamoyl]benzamide]: the IC50 at human GHS receptor [1] amounted to 234 nM. Also, on human GHS receptor [2], the Emax came out at 24% and the EC50 came out at 61.1 nM.

Regarding `COCCNCCCS(=O)(=O)c1ccc2nc(NC(=O)NC(=O)c3ccccc3Cl)sc2c1` [Example 203, 2-Chloro-N-[[6-[3-(2-methoxyethylamino)propylsulfonyl]benzothiazol-2-yl]carbamoyl]benzamide], the IC50 at human GHS receptor [1] amounted to 14.9 nM. In addition, at human GHS receptor [2], the Emax worked out at 29.4% and the EC50 was found to be 6.22 nM.

As for `O=C(NC(=O)c1ccccc1Cl)Nc1nc2ccc(S(=O)(=O)Cc3ccccn3)cc2s1` [Example 178, 2-Chloro-N-[[6-(pyridin-2-ylmethylsulfonyl)benzothiazol-2-yl]carbamoyl]benzamide], the IC50 on human GHS receptor [1] amounted to 108 nM. Moreover, at human GHS receptor [2], the Emax came to 18.7% and the EC50 stood at 77.7 nM.

In the case of `O=C(NC(=O)c1ccccc1Cl)Nc1nc2ccc(S(=O)(=O)CC3CCNCC3)cc2s1` [Example 219, 2-Chloro-N-[[6-(4-piperidylmethylsulfonyl)benzothiazol-2-yl]carbamoyl]benzamide], at human GHS receptor [1], the IC50 is 17.8 nM. On human GHS receptor [2], the Emax worked out at 64.5% and the EC50 stood at 29.3 nM.

Regarding `O=C(NC(=O)c1ccccc1Cl)Nc1nc2ccc(S(=O)(=O)CCNC3CC4CCC3C4)cc2s1` (centres unmarked) [Example 35, 2-Chloro-N-[[6-[2-(norbornan-2-ylamino)ethylsulfonyl]benzothiazol-2-yl]carbamoyl]benzamide], the IC50 on human GHS receptor [1] amounted to 71.5 nM. On human GHS receptor [2], the Emax was found to be 56.1% and the EC50 worked out at 10.4 nM.

Source of the values: patent US20120115845A1, “THERAPEUTIC AGENTS” (priority 2007, published 2012).
